Results reported in paper PMC6479757, “Coralmycin Derivatives with Potent Anti-Gram Negative Activity Produced by the Myxobacteria Corallococcus coralloides M23” (Molecules, 2019).
In brackets after ≈: the same amount, converted by molar mass. Like-named read-outs stand apart in the source and are kept apart here.

Key:
Gram-negative pathogens = conditions: compared with 12; cited from earlier work
[1] = tested on: Staphylococcus aureus RN 4220; experiment: Antibacterial susceptibility, broth microdilution MIC; assay type: cell-based; conditions: RN4220, 24 h
Experimental: Whole-cell antimicrobial activities were determined using a broth microdilution method described previously. Most of the test strains were grown to mid-log phase in Mueller–Hinton broth and diluted 1,000-fold in the same medium. Cells (10^5/mL) were dispensed at 0.2 mL/well in 96-well microtiter plates. Streptococcus pneumonia and Acinetobacter baumanii were grown in Todd–Hewitt medium and nutrient broth, respectively. […] Cells were treated with 0.05% DMSO as a vehicle control. The MICs were determined in triplicate by serial two-fold dilutions of the test compounds. […] Bacterial growth was determined by measuring the absorption at 650 nm using a microtiter enzyme-linked immunosorbent assay (ELISA) reader (Molecular Devices Corporation, Sunnyvale, CA, USA).

[2] = tested on: Acinetobacter baumannii KCTC 2508; experiment: as above; assay type: cell-based; conditions: KCTC2508, nutrient broth, 24-h incubation at 37 °C
Experimental: (§1) Whole-cell antimicrobial activities were determined using a broth microdilution method described previously. Most of the test strains were grown to mid-log phase in Mueller–Hinton broth and diluted 1,000-fold in the same medium. Cells (10^5/mL) were dispensed at 0.2 mL/well in 96-well microtiter plates. Streptococcus pneumonia and Acinetobacter baumanii were grown in Todd–Hewitt medium and nutrient broth, respectively. […]. Cells were treated with 0.05% DMSO as a vehicle control. The MICs were determined in triplicate by serial two-fold dilutions of the test compounds. […] Bacterial growth was determined by measuring the absorption at 650 nm using a microtiter enzyme-linked immunosorbent assay (ELISA) reader (Molecular Devices Corporation, Sunnyvale, CA, USA).

E. coli CCARM 1356 = experiment: as above; assay type: cell-based; conditions: Escherichia coli, CCARM1356, 24-h incubation at 37 °C
Experimental: as §1

E. coli KCTC 1682 = experiment: as above; assay type: cell-based; conditions: Escherichia coli
Experimental: as §1

[3] = tested on: Enterococcus faecalis KCTC 5191; experiment: as above; assay type: cell-based; conditions: KCTC5191, 24-h incubation at 37 °C
Experimental: as §1

[4] = tested on: Klebsiella pneumoniae KCTC 22057; experiment: as above; assay type: cell-based; conditions: KCTC22057; Klebsiella pneumoniae KCTC 22057; 24-h incubation at 37 °C
Experimental: as §1

MRSA CCARM 3167 = experiment: as above; assay type: cell-based; conditions: Staphylococcus aureus, 24-h incubation at 37 °C
Experimental: as §1

MRSA CCARM 3506 = experiment: as above; assay type: cell-based; conditions: Staphylococcus aureus, 24-h incubation at 37 °C
Experimental: as §1

[5] = tested on: Pseudomonas aeruginosa KCTC 2004; experiment: as above; assay type: cell-based; conditions: KCTC2004; Pseudomonas aeruginosa KCTC 2004; 24-h incubation at 37 °C
Experimental: as §1

QRSA CCARM 3505 = experiment: as above; assay type: cell-based; conditions: Staphylococcus aureus, CCARM3505; QRSA CCARM 3505; 24-h incubation at 37 °C; read-out: MIC
Experimental: as §1

QRSA CCARM 3519 = experiment: as above; assay type: cell-based; conditions: Staphylococcus aureus, CCARM3519; QRSA CCARM 3519; 24-h incubation at 37 °C; read-out: MIC
Experimental: as §1

[6] = tested on: Streptococcus pneumonia KCTC 5412; experiment: as above; assay type: cell-based; conditions: Streptococcus pneumoniae, KCTC5412, Todd–Hewitt medium, 24-h incubation at 37 °C
Experimental: as §1

E. coli DNA gyrase = molecular target: T1, E. coli DNA gyrase (Escherichia coli, UniProt P0AES4+P0AES6); experiment: DNA gyrase supercoiling assay; assay type: biochemical; conditions: relaxed plasmid, 37 °C for 30 min, agarose gel band densities; read-out: IC50, inhibition of the supercoiling activity of E. coli DNA gyrase
T1 construct: purchased TopoGEN TG2001G
Experimental: The inhibitory activities of coralmycins on the supercoiling activity of DNA gyrase were investigated using a ‘Purified E. coli DNA Gyrase Drug Screening Kit’ (TopoGEN #TG2001G, Buena Vista, CO, USA). […] The reaction was terminated by the addition of 2 μL of 10% (w/v) SDS and 2 μL of 10× DNA gel loading dye (bromophenol blue). Then, 20 μL of chloroform:isoamyl alcohol (24:1 mixture) was added, and the mixture was vortexed and then centrifuged. The samples in the blue phase were run on 1% (w/v) agarose gel and were visualized using ethidium bromide. All reactions were performed in triplicate. To calculate the IC50 values, the band densities were measured using ImageJ (National Institutes of Health, Bethesda, Maryland, MD, USA).

[7] = tested on: Gram-negative pathogens as well as Gram-positive bacteria; design: method as in PMID 27598688; conditions: compared with 11; cited from earlier work
[8] = tested on: Gram-negative and Gram-positive bacteria; conditions: cited from earlier work
DNA gyrase = conditions: read-out: IC50, DNA gyrase-inhibitory activity; cited from earlier work
[9] = KCTC1682, 24-h incubation at 37 °C, Table 6 and Table S1, read-out: MIC

T1 sequence (P0AES4 whole entry, one chain of several): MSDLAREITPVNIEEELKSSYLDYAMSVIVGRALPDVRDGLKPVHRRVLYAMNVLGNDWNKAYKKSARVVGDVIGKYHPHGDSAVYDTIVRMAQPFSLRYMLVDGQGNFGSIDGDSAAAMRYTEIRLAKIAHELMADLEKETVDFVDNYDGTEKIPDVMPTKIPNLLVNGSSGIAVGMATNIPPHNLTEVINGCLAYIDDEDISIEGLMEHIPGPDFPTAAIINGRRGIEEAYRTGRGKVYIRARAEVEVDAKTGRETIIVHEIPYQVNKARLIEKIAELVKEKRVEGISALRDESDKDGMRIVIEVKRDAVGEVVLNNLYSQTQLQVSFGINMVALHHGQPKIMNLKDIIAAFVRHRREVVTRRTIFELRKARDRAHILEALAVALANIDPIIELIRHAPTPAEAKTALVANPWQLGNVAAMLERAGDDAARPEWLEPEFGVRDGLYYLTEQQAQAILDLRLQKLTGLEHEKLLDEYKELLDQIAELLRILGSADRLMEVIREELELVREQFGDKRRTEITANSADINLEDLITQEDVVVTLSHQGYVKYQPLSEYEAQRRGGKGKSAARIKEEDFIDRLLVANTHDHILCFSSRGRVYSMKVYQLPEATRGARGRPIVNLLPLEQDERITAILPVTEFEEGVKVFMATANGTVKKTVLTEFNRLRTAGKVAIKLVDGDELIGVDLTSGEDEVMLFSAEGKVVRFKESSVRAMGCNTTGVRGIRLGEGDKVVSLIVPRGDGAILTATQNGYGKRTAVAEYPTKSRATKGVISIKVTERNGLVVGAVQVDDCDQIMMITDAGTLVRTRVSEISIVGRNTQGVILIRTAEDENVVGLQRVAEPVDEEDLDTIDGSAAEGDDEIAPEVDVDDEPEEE

| Compound | antibacterial activity against Gram-negative pathogens relative to 12 (times higher) (Gram-negative pathogens) | MIC [1] | MIC [2] | MIC (E. coli CCARM 1356) | MIC (E. coli KCTC 1682; [9]) | MIC (E. coli KCTC 1682; KCTC1682, 24 h, Table 7, read-out: MIC, antibacterial activity on E. coli KCTC 1682) | MIC [3] | MIC [4] | MIC (MRSA CCARM 3167) | MIC (MRSA CCARM 3506) | MIC [5] | MIC (QRSA CCARM 3505) | MIC (QRSA CCARM 3519) | MIC [6] | IC50 (E. coli DNA gyrase) | antibacterial activity relative to 11 (times higher) [7] | MIC (E. coli KCTC 1682; KCTC1682, Table 7, read-out: MIC, antibacterial activity on E. coli KCTC 1682) | antibacterial activity ([8]; in words) | MICs against Gram-negative and Gram-positive bacteria ([8]; reported range) | IC50 (DNA gyrase) |
| --- | --- | --- | --- | --- | --- | --- | --- | --- | --- | --- | --- | --- | --- | --- | --- | --- | --- | --- | --- | --- |
| CO[C@@H](C(N)=O)[C@H](NC(=O)c1ccc(NC(=O)c2ccc([N+](=O)[O-])cc2)cc1)C(=O)Nc1ccc(C(=O)Nc2ccc(C(=O)Nc3ccc(C(=O)O)cc3)c(O)c2OC(C)C)cc1 [cystobactamid 861-2] | 4–10 times |  |  |  |  |  |  |  |  |  |  |  |  |  |  |  |  |  |  |  |
| CO[C@@H](C(N)=O)[C@H](NC(=O)c1ccc(NC(=O)c2ccc([N+](=O)[O-])cc2)cc1)C(=O)Nc1ccc(C(=O)Nc2ccc(C(=O)Nc3ccc(C(=O)O)c(O)c3OC(C)C)c(O)c2OC(C)C)cc1 [Compound 12, coralmycin A, reference compound] |  | 0.015 µg/mL (≈ 0.016 µM) | 0.125 µg/mL (≈ 0.134 µM) | 0.125 µg/mL (≈ 0.134 µM) | 0.125 µg/mL (≈ 0.134 µM) | 0.25 µg/mL (≈ 0.267 µM) | 0.03 µg/mL (≈ 0.0321 µM) | 2 µg/mL (≈ 2.14 µM) | 0.015 µg/mL (≈ 0.016 µM) | 0.015 µg/mL (≈ 0.016 µM) | 4 µg/mL (≈ 4.27 µM) | 0.125 µg/mL (≈ 0.134 µM) | 0.25 µg/mL (≈ 0.267 µM) | 0.25 µg/mL (≈ 0.267 µM) | 80 nM | 10 times |  |  |  |  |
| CC(C)Oc1cc(C(=O)O)ccc1NC(=O)c1ccc(NC(=O)c2ccc(N)cc2)c(OC(C)C)c1O [Compound 10, cystobactamid 507] |  | > 32 µg/mL | > 32 µg/mL | > 32 µg/mL | > 32 µg/mL |  | > 32 µg/mL | > 32 µg/mL | > 32 µg/mL | > 32 µg/mL | > 32 µg/mL | > 32 µg/mL | > 32 µg/mL | > 32 µg/mL | > 300000 nM |  | > 32 µg/mL | weak antibacterial activity | 4 to 65 µg/mL | 20.2 µM |
